Reference: patent publication US20080279897A1, “Method of Treating Cellular Damage” (MEDVET SCIENCE PTY. LTD., priority 2005, published 2008)

Columns and labels:
ICAM-1 = test: Cell surface ICAM-1 expression in HUVEC by flow cytometry; type: cell-based, human
Protocol: (§1) Human umbilical vein EC (HUVEC) and bovine aortic EC (BAEC) were routinely cultured in this laboratory as previously described (Verrier et al., 2004, Circ. Res. 94:1515-1522). In all experiments EC ranging from passage 2-6 were used. For the experimental studies, EC were allowed to reach confluence in the regular growth media. Medium was then changed to (i) EBM (Clonetics, Walkersville, Md.) containing 1% FCS and 5.5 mM glucose (normal glucose, NG); (ii) NG medium supplemented with additional glucose to final concentration of 22 mM (high glucose); or (iii) NG medium containing 16.5 mM L-glucose or mannitol that served as an osmotic control for the high glucose medium.
(§2) After the indicated treatment, HUVECs were incubated with primary monoclonal antibodies to VCAM-1, ICAM-1 and E-selectin or an isotype-matched non-relevant antibody for 30 min. Cells were then incubated with FITC-conjugated secondary antibody and fixed in 2.5% formaldehyde. The expression of cell-surface adhesion molecules was measured as fluorescence intensity by use of a Coulter Epics Profile XL flow cytometer, as described previously (Verrier et al., 2004, supra).

SphK [1] = test: SphK activity in HUVEC; type: cell-based, human; conditions: for effect on SphK activity: 22 mmol/L, osmotic control; for effect on high glucose-induced increases in SphK activity: PD98059 10 μM, U0126 2 μM
Protocol: as §1, with “([…]” for “(Verrier”, “medium. As described previously (Xia et al., 1999, J. Biol. […] The formation of S1P in vivo was measured in the permeabilized cells as previously described (Xia et al., 1998, Proc. Natl. Acad. Sci. U.S.A 95:14196-14201).” for “medium.”

VCAM-1 = test: Cell surface VCAM-1 expression in HUVEC by flow cytometry; type: cell-based, human
Protocol: as §1, §2

PKC = PKC activity assay in situ in HUVEC; type: cell-based, human; conditions: 2.5 μmol/L, high glucose
Protocol: PKC activity was measured in situ as described previously (Xia et al., 1996, J. Clin. Invest 98:2018-2026). Briefly, cells were seeded in 24-well plates and exposed to NG or HG for 3 days. After the indicated treatments, total PKC activity was then determined in permeabilized cells in the presence of 10 μM [γ^32P]ATP (5000 cpm/pmol) and the PKC-specific peptide substrate (RKRTLRRL, 200 μM). The activity was then quantified by scintillation counting and normalized to total protein levels.

NF-κB [2] = test: NF-κB electrophoretic mobility shift assay in HUVEC; type: cell-based, human; conditions: 2.5 μM, gel shift
Protocol: (§3) Nuclear extracts were prepared from EC exposed to NG or HG with or without the indicated treatment. The double-stranded oligonucleotides used as probes in the experiments included 5′-[…]-3′ (SEQ ID NO: 1) which contains a consensus NF-κB binding site in E-selectin promoter (underlined). Gel mobility shift of a consensus NF-κB oligonucleotide was performed by incubating a ^32P-labelled NF-κB probe with 4 μg of nuclear proteins as described previously (Xia et al., 1998, supra).

E-selectin = test: Cell surface E-selectin expression in HUVEC by flow cytometry; type: cell-based, human; conditions: for effect on E-selectin expression: 5 μM for 6 hrs
Protocol: as §1, §2

SphK [3] = test: SphK activity in BAEC (parental or transfected); type: cell-based, bovine; conditions: for effect on SphK activity: BAEC, 22 mmol/L, osmotic control
Protocol: as §1
(§4) FLAG-tagged human wild-type SphK1 cDNA and the dominant negative SphK1^G82D were sub-cloned into pcDNA3 plasmids (Invitrogen, Melbourne, Australia) as previous described (Pitson et al., 2000, J. Biol. Chem. 275:33945-33950). Lipofectamine 2000 (Invitrogen) mediated transfection was performed in BAEC according to the manufacturer's protocols. For stable expression, the transfectants were selected in medium containing 800 μg/ml G418 (Invitrogen). The resulting non-clonal pools of G418-resistant transfected cells were then collected and used to avoid clonal variability. The expression of FLAG-tagged transgenes was determined by Westernblot assay with the antibodies against FLAG (M2, Sigma, Clayton, Australia).
(§5) As described previously (Xia et al., 1999, J. Biol. Chem. 274:34499-34505), SphK activity was routinely determined using D-erythro-sphingosine (Biomol, Plymouth Meeting, Pa.) and [γ^32P]ATP (Geneworks, Adelaide, Australia) as substrates, and defined as picomoles of S1P formed per min per mg protein. The formation of S1P in vivo was measured in the permeabilized cells as previously described (Xia et al., 1998, Proc. Natl. Acad. Sci. U.S.A 95:14196-14201).

S1P formation = S1P formation in endothelial cells; type: cell-based, human; conditions: 22 mmol/L
Protocol: as §1, §5

[4] = tested on: U937 cells adhering to HUVEC; test: Adherence of U937 cells to HUVEC; type: cell-based, human; conditions: 50 ng/ml
Protocol: (§6) U937 cells (CRL 1593.2; ATCC) were grown in RPMI-1640 medium (GIBCO BRL) containing 10% FCS, collected by low-speed centrifugation and resuspended at a density of 2×10^5 cells/ml in medium without FCS. EC were seeded into 24-well plates and cultured with NG or HG medium for 3 days after confluence. After washing twice with warm RPMI-1640 medium, the U937 cell suspension (100 μl/well) was added and incubated for 30 minutes at 37° C. Non-adherent cells were removed by rinsing the plates three times with PBS, and the number of adherent cells was then counted under microscopy with at least 6 fields per well culture being quantified.

[5] = tested on: U937 cells adhering to BAEC; test: Adherence of U937 cells to transfected BAEC; type: cell-based, bovine; conditions: stably transfected BAEC, 22 mM glucose 3 days
Protocol: as §4, §6

NF-κB [6] = test: NF-κB electrophoretic mobility shift assay in BAEC; type: cell-based, bovine; conditions: gel shift
Protocol: as §4, §3

[7] = 2.5 μmol/L, 3 days high glucose

CCCCCCCCCCCCC/C=C/[C@@H](O)[C@H](CO)N(C)C [DMS, N′N′-dimethylsphingosine]
effect on high glucose-induced increase in ICAM-1 expression (ICAM-1; [7]): completely abolished
inhibition of high glucose-induced SphK activity (SphK [1]; 2.5 μmol/L): capable of inhibiting
effect on high glucose-induced increase in VCAM-1 expression (VCAM-1; [7]): completely abolished
inhibitory effect on PKC activity (PKC): no inhibitory effect
effect on high glucose-induced NF-κB activation (NF-κB [2]): completely inhibited
effect on high glucose-induced increase in E-selectin expression (E-selectin; [7]): completely abolished

CN(C)CCCn1cc(C2=C(c3c[nH]c4ccccc34)C(=O)NC2=O)c2ccccc21 [GF109203X]
attenuation of high glucose-induced increases in SphK activity (SphK [1]; 5 μM, 30 min): ~50%

O=C[C@@H](O)[C@H](O)[C@@H](O)[C@@H](O)CO [L-glucose]
effect on SphK activity (SphK [3]): neither mannitol nor L-glucose at 22 mmol/L had any significant effects
effect on SphK activity (SphK [1]): neither mannitol nor L-glucose at 22 mmol/L had any significant effects
effect on S1P production (S1P formation): fails to activate sphingosine kinase or effect S1P production

COc1cccc(-c2cc(=O)c3ccccc3o2)c1N [PD98059]
effect on high glucose-induced increases in SphK activity (SphK [1]; 30 min): completely prevented

CCCCCCCCCCCCC/C=C/[C@@H](O)[C@@H](N)COP(=O)(O)O [S1P, sphingosine-1-phosphate]
effect on E-selectin expression (E-selectin): significant increase

N#CC(=C(/N)Sc1ccccc1N)/C(C#N)=C(\N)Sc1ccccc1N [U0126]
effect on high glucose-induced increases in SphK activity (SphK [1]; 30 min): completely prevented

CCCCCCCCCCCCCCC[C@@H](O)[C@@H](N)COP(=O)(O)O [dihydro-S1P, sphinganine-1-phosphate]
effect on E-selectin expression (E-selectin): no significant effect

OC[C@@H](O)[C@@H](O)[C@H](O)[C@H](O)CO [mannitol]
effect on SphK activity (SphK [3]): neither mannitol nor L-glucose at 22 mmol/L had any significant effects
effect on SphK activity (SphK [1]): neither mannitol nor L-glucose at 22 mmol/L had any significant effects
effect on S1P production (S1P formation): fails to activate sphingosine kinase or effect S1P production

lysophosphatidic acid [LPA]
effect on E-selectin expression (E-selectin): significant increase

pertussis toxin
inhibition of high glucose-induced expression of ICAM-1 (ICAM-1; 50 ng/ml, vs untreated cells): 42%
inhibition of high glucose-induced expression of VCAM-1 (VCAM-1; 50 ng/ml, vs untreated cells): 30%
number of leukocytes adhering to high glucose-stimulated EC [4]: partially, but significantly, reduced
inhibition of high glucose-induced expression of E-selectin (E-selectin; 50 ng/ml, vs untreated cells): 35%
inhibition of LPA-induced E-selectin expression (E-selectin; 5 μM LPA 6 hrs, PTX 50 ng/ml): completely inhibited
inhibition of S1P-induced E-selectin expression (E-selectin; 5 μM S1P 6 hrs, PTX 50 ng/ml): 32%

B1: SphK^WT: FLAG-tagged wild-type human SphK1 stably overexpressed in BAEC by transfection (protein, UniProt Q9NYA1 1-384, looked up)
Sphingosine kinase 1: MDPAGGPRGVLPRPCRVLVLLNPRGGKGKALQLFRSHVQPLLAEAEISFTLMLTERRNHARELVRSEELGRWDALVVMSGDGLMHEVVNGLMERPDWETAIQKPLCSLPAGSGNALAASLNHYAGYEQVTNEDLLTNCTLLLCRRLLSPMNLLSLHTASGLRLFSVLSLAWGFIADVDLESEKYRRLGEMRFTLGTFLRLAALRTYRGRLAYLPVGRVGSKTPASPVVVQQGPVDAHLVPLEEPVPSHWTVVPDEDFVLVLALLHSHLGSEMFAAPMGRCAAGVMHLFYVRAGVSRAMLLRLFLAMEKGRHMEYECPYLVYVPVVAFRLEPKDGKGVFAVDGELMVSEAVQGQVHPNYFWMVSGCVEPPPSWKPQQMPPPEEPL
modifications: FLAG tag
notes: FLAG-tagged wild-type human SphK1 stably overexpressed in BAEC by transfection
basal level of SphK activity, higher than control cells (SphK [3]; stably transfected BAEC): 10 fold
number of leukocytes adhering to high glucose-stimulated BAEC [5]: markedly enhanced

B2: SphK^G82D: point mutation of human SphK1, dominant-negative mutant, stably expressed in BAEC by transfection (protein, UniProt Q9NYA1 1-384, looked up, variant G82D)
Sphingosine kinase 1: MDPAGGPRGVLPRPCRVLVLLNPRGGKGKALQLFRSHVQPLLAEAEISFTLMLTERRNHARELVRSEELGRWDALVVMSGDDLMHEVVNGLMERPDWETAIQKPLCSLPAGSGNALAASLNHYAGYEQVTNEDLLTNCTLLLCRRLLSPMNLLSLHTASGLRLFSVLSLAWGFIADVDLESEKYRRLGEMRFTLGTFLRLAALRTYRGRLAYLPVGRVGSKTPASPVVVQQGPVDAHLVPLEEPVPSHWTVVPDEDFVLVLALLHSHLGSEMFAAPMGRCAAGVMHLFYVRAGVSRAMLLRLFLAMEKGRHMEYECPYLVYVPVVAFRLEPKDGKGVFAVDGELMVSEAVQGQVHPNYFWMVSGCVEPPPSWKPQQMPPPEEPL
SphK activation under high glucose conditions (SphK [3]; BAEC expressing the mutant, 22 mM glucose 3 days): no SphK activation
high glucose-induced NF-κB activation in cells expressing the mutant (NF-κB [6]): incapable of activating NF-κB
number of leukocytes adhering to high glucose-stimulated BAEC [5]: profoundly attenuated
